The values below come from patent publication US4363812A, “3-(Tetrazol-5-yl), 4-methyl-8-alkoxy coumarins and anti-allergic compositions thereof” (priority 1978, dated 1982).

Where a name gives a salt, the structure may show the parent alone. Read-outs that look alike come from different tables or passages of the source.

For data set [1], the system named is passive cutaneous anaphylaxis (PCA) mediated by homocytotropic antibodies (HTA). Nature of the data set: passive cutaneous anaphylaxis (PCA) test, oral, in rats. The conditions noted are these: for minimal effective dose: Rattus norvegicus. It counts as in vivo, rat (Wistar). The method, then: With respect to the present 3-(1H-tetrazol-5-yl)coumarin derivatives, there was tested antiallergic activity concerning passive cutaneous anaphylaxis (PCA) mediated by homocytotropic antibodies (HTA) in rats.
(i) Preparation of antisera
2,4-Dinitrophenyl-coupled ascaris extract (DNP-As) used as antigen, was prepared according to the methods of Strejan et al [cf. J. Immunol., Vol. 98, 893(1967)] and Eisen [cf. J. Amer. Chem. Soc., Vol. 75. 4593(1953)]. Antisera containing HTA were prepared in rats according to the method of Tada and Okumura [cf. J. Immunol., Vol. 106, 1002(1971)] as follows:
Female wister rats weighing 180 to 200 g. were splenectomized and several days later immunized by injecting into all four footpads a total of 1 mg. of DNP-As mixed with 10^10 Bordetella pertussis. After 5 days, 0.5 mg. of DNP-As alone was injected subcutaneously into the back of rats. Eight days after the first immunization, blood was collected by aortic puncture under ether anaesthesea and antisera obtained by these procedures were pooled and stored at -80° C.
The titer of the pooled autiserum was determined in rats by the 72 hr. PCA which method was described in the following item (ii), i.e. the highest dilution of antiserum producing a diameter of approximately 5 mm. was usually 1:500.
(ii) Assessment of PCA in rats
Normal wister rats weighing 140 to 160 g. were sensitized passively by injection intradermal on the shaved back skin 0.05 ml. of the diluted antisera (1:30). After 72 hours, the animals were injected intravenously 1 ml. of physiological salt solution containing 2 mg. DNP-As and 2.5 mg. Evans' blue.
The present compounds to be tested were given orally 30 minutes before antigen challenge. The animals were exsanguinated 30 minutes after challenge with the antigens and the skins were exfoliated. The intensities of PCA were evaluated by measuring the amount of leaked dye. The amount of dye leaked as a result of PCA was extracted according to the method of Harada et al [cf. Jpn. J. Allergol., Vol. 15, 1(1966)] and measured photometrically.

The test system of the next data set is experimental asthma. Nature of the data set: model of experimental asthma in animals. It counts as in vivo. The conditions noted are these: oral administration.
Data set [2] can be described thus: acute toxicity, oral, in mice. It counts as in vivo. Conditions: mouse, in vivo, po. The method, then:
(§1) Moreover, the introduction of substituent groups such as an alkoxyl group, an alkenyloxy group and hydroxyl group to the 5, 6, 7 or 8 position of the coumarin ring brings the decrease of toxicity.
(§2) With respect to the present 3-(1H-tetrazol-5-yl)coumarin derivatives, there was tested acute toxicity in mice.
(§3) After normal female Slc: ddy mice 4 weeks old were purchased and fed preliminarily in this lavoratory for a week, these mice weighing 25-27 g. were used in the test. The present compounds to be tested, were suspended in a 10% gum arabic solution and administered orally […]. body weight to mice. Each dose level was given to a group of ten animals and the survivors were kept under observation for 6 days. The numbers of dead animals were counted and the LD50 values in mg./kg. body weight were calculated by the method of Litchfield-Wilcoxon.

The next data set relates to mice. Kind of data set: acute toxicity, oral, in mice. Format: in vivo. The conditions noted are these: Table 4; oral, female Slc: ddy mice, 6 days observation, Litchfield-Wilcoxon; 8640 min. The method, then: as §1, §2, §3

For `CCCCCCOc1cccc2cc(-c3nnn[nH]3)c(=O)oc12` [Example 10, 8-n-Hexyloxy-3-(1H-tetrazol-5-yl)coumarin], the minimal effective dose in data set [1] (po, read-out: MED (minimum effective dose)) worked out at 1.56 mg/kg; in data set [1] (read-out: MED (minimum effect dose)) it was 1.56 mg/kg. Also, the “therapeutic effect in experimental asthma” value with experimental asthma is “shows a therapeutic effect”. The LD50 at 144 h stood at 2650 mg/kg in data set [2] (LD50 (50% lethal dose), Table 1, orally in mice) and 2650 mg/kg in data set [2] (Table 4, oral, female Slc: ddy mice, 6 days observation, Litchfield-Wilcoxon, read-out: LD50).

On to `CCCCOc1cccc2cc(-c3nnn[nH]3)c(=O)oc12` [Example 31, Sodium salt of 8-n-butoxy-3-(1H-tetrazol-5-yl)coumarin], for which, in data set [1] (Table 3, oral 30 minutes before antigen challenge, rats, lowest dose significantly decreasing leaked dye vs control), the “MED (minimum effect dose)” value was determined as 1.56 mg/kg. Also, the LD50 in the data set on mice turned out to be 2470 mg/kg.
